Values joined by “and” are separate entries in the source; they are usually repeats but may differ in a detail not shown here. Equal entries are not always repeated. Where two headings read alike, the source gives them in different places.
Tests used:
[1] = DPPH radical scavenging activity; conditions: for IC50: 200 μM DPPH solution; for % Inhibition (DPPH), replicate 1 / % DPPH Inhibition, Mean / % Inhibition (DPPH), replicate 2 / % Inhibition (DPPH), replicate 3: 500 μM; for % Inhibition (DPPH), replicate 1: first replicate column; for % DPPH Inhibition, Mean: mean of n = 3; for % Inhibition (DPPH), replicate 2: second replicate column; for % Inhibition (DPPH), replicate 3: third replicate column
Method: The DPPH radical scavenging activity was conducted to thoroughly evaluate the antioxidant potential of andrographolide and its analogues. We modified the assay employing the Sekhon-Loodu and Rupasinghe methods. A DPPH solution was prepared in absolute ethanol, with a concentration of 200 μM. Next, 100 μL of DPPH solution was mixed with 100 μL of the sample in a 96-well plate. The mixture was then incubated for 30 minutes at room temperature. Following incubation, we measured the absorbance at 517 nm using a microplate reader. We tested the antioxidant properties of the compounds at a concentration of 500 μM to detect the weak-to-moderate antioxidants while addressing solubility limitations and minimizing assay artefacts, consistent with previous research. The DPPH radical scavenging activity was precisely expressed as a percentage of DPPH inhibition (% DPPH Inhibition). We selected candidates based on their higher inhibitory activity and prepared various concentrations of these candidates for testing. α-tocopherol, also known as vitamin E, was employed as a positive control. The % DPPH Inhibition was calculated as follows:
%DPPH Inhibition=(1–{A/B})×100
Where A was the absorbance of the DPPH with sample, and B was the absorbance of the DPPH with vehicle (blank).

[2] = target: T1, α-glucosidase from Saccharomyces cerevisiae (Saccharomyces cerevisiae, UniProt P38158); assay: α-glucosidase inhibition activity (p-NPG substrate); type: biochemical; conditions: for α-glucosidase inhibition (%), Mean: 2000 μM; for IC50: concentration range up to 2000 μM
Method: An in vitro α-glucosidase inhibitory assay is commonly used to evaluate the inhibitory effects of various compounds on the enzyme α-glucosidase, which is involved in carbohydrate digestion. Inhibiting this enzyme results in slower glucose absorption, which can be beneficial for managing postprandial blood sugar levels in diabetic conditions. This assay was modified from the methods described by Yusuf et al.. The procedure involved mixing 25 μL of the sample, 150 μL of phosphate buffer saline (PBS) pH 7.4, and 75 μL of 10 mM p-NPG. The mixture was incubated at 37 °C for 10 min. Next, 50 μL of α-glucosidase enzyme from Saccharomyces cerevisiae at a concentration of 0.1 U/mL was added, then incubated at 37 °C for 10 min. To terminate the reaction, […] of 0.1 M sodium carbonate (Na2CO3) was added to the mixture. The absorbance was measured using a microplate reader. The percentage of α-glucosidase inhibition was calculated as follows:
α−glucosidase inhibition(%)=(1–{A−B/C−D})×100
Where A was the absorbance of the sample with α-glucosidase enzyme, B was the absorbance of the sample, C was the absorbance of vehicle with α-glucosidase enzyme, and D was the absorbance of the vehicle (blank).

[3] = target: T1, α-glucosidase from Saccharomyces cerevisiae; assay: Surface plasmon resonance, steady-state affinity; type: binding
Method: All experiments were conducted using a Biacore X100 instrument at 25 °C with a running buffer of 1X PBS-P+ (10 mM phosphate buffer pH 7.4, 2.7 mM KCl, 137 mM NaCl, 0.05% Tween 20) supplemented with 5% DMSO. Compounds were initially dissolved in DMSO to a final concentration of 14 mM. The stock solution was then diluted to 700 μM in 1.05X PBS-P+ to prepare a compound solution containing 1X PBS-P+ with 5% DMSO. This compound solution was utilized to prepare the required concentrations for injections into the Biacore system. α-glucosidase from Saccharomyces cerevisiae was immobilized onto a CM5 chip following standard amine coupling procedures: the CM5 chip, containing channel 1 and 2, was activated with an injection of NHS/EDC mixture with a contact time of 540 s at a flow rate of 10 µL/min. This was followed by multiple injections of α-glucosidase dissolved in 10 mM sodium acetate pH 4.0 (50 µg/mL) onto channel 2, also with a contact time of 540 s at a flow rate of 10 µL/min. Both channels were inactivated by an injection of 1M ethanolamine at a flow rate of 10 µL/min for 540 s. An immobilization level of 3300 RU of α-glucosidase was achieved.
Multi-cycle affinity studies were conducted with a 100 s association phase and a 60 s dissociation phase, using a flow rate of 30 µL/min. Compounds were injected onto the chip at increasing concentrations of 7, 21, 70, 210, and 490 μM. Binding measurements were taken after reference subtraction of channel 1 (no immobilized α-glucosidase) and after subtracting the results from a blank injection with zero analyte concentration. All data evaluation was performed with Biacore X100 evaluation software (version 2.0).

[4] = Ferric reducing antioxidant power (FRAP) activity; conditions: for FRAP, Ascorbic acid equivalent, replicate 3: third replicate column
Method: The FRAP activity assay was performed to assess the reducing power ability to reduce ferric ions (Fe^3+) to ferrous ions (Fe^2+), following the established method described by Sekhon-Loodu and Rupasinghe. The FRAP reagent was freshly prepared by combining 300 mM acetate buffer pH 3.6, 10 mM 2,4,6- Tri(2-pyridyl)-s-triazine (TPTZ) dissolved in 40 mM HCl, and 20 mM FeCl3 in a ratio of 10:1:1. Ferrous sulfate (FeSO4) was used as a standard, with ascorbic acid serving as a control. The assay was conducted in a 96-well plate by mixing 20 μL of the sample, standard, or positive control with 80 μL of the FRAP solution. The mixture was then incubated for 20 minutes at room temperature, after which we measured absorbance at 595 nm using a microplate reader. The results were expressed as FRAP value, reported as ascorbic acid equivalent in μM (AAE, μM), providing a definitive measure of reducing power.

[5] = read-out: α-glucosidase inhibition (%), Mean, 31.2 μM
[6] = read-out: α-glucosidase inhibition (%), Mean, 62.5 μM
[7] = read-out: α-glucosidase inhibition (%), Mean, 125 μM
[8] = read-out: α-glucosidase inhibition (%), Mean, 250 μM
[9] = read-out: α-glucosidase inhibition (%), Mean, 500 μM
[10] = read-out: α-glucosidase inhibition (%), Mean, 1000 μM
[11] = read-out: α-glucosidase inhibition (%), Mean, 2000 μM
[12] = read-out: α-glucosidase inhibition (%), replicate 1, 31.2 μM, first replicate column
[13] = read-out: α-glucosidase inhibition (%), replicate 1, 62.5 μM, first replicate column
[14] = read-out: α-glucosidase inhibition (%), replicate 1, 125 μM, first replicate column
[15] = read-out: α-glucosidase inhibition (%), replicate 1, 250 μM, first replicate column
[16] = read-out: α-glucosidase inhibition (%), replicate 1, 500 μM, first replicate column
[17] = read-out: α-glucosidase inhibition (%), replicate 1, 1000 μM, first replicate column
[18] = read-out: α-glucosidase inhibition (%), replicate 1, 2000 μM, first replicate column
[19] = read-out: α-glucosidase inhibition (%), replicate 2, 31.2 μM, second replicate column
[20] = read-out: α-glucosidase inhibition (%), replicate 2, 62.5 μM, second replicate column
[21] = read-out: α-glucosidase inhibition (%), replicate 2, 125 μM, second replicate column
[22] = read-out: α-glucosidase inhibition (%), replicate 2, 250 μM, second replicate column
[23] = read-out: α-glucosidase inhibition (%), replicate 2, 500 μM, second replicate column
[24] = read-out: α-glucosidase inhibition (%), replicate 2, 1000 μM, second replicate column
[25] = read-out: α-glucosidase inhibition (%), replicate 2, 2000 μM, second replicate column
[26] = read-out: α-glucosidase inhibition (%), replicate 3, 31.2 μM, third replicate column
[27] = read-out: α-glucosidase inhibition (%), replicate 3, 62.5 μM, third replicate column
[28] = read-out: α-glucosidase inhibition (%), replicate 3, 125 μM, third replicate column
[29] = read-out: α-glucosidase inhibition (%), replicate 3, 250 μM, third replicate column
[30] = read-out: α-glucosidase inhibition (%), replicate 3, 500 μM, third replicate column
[31] = read-out: α-glucosidase inhibition (%), replicate 3, 1000 μM, third replicate column
[32] = read-out: α-glucosidase inhibition (%), replicate 3, 2000 μM, third replicate column

T1 sequence (P38158 whole entry): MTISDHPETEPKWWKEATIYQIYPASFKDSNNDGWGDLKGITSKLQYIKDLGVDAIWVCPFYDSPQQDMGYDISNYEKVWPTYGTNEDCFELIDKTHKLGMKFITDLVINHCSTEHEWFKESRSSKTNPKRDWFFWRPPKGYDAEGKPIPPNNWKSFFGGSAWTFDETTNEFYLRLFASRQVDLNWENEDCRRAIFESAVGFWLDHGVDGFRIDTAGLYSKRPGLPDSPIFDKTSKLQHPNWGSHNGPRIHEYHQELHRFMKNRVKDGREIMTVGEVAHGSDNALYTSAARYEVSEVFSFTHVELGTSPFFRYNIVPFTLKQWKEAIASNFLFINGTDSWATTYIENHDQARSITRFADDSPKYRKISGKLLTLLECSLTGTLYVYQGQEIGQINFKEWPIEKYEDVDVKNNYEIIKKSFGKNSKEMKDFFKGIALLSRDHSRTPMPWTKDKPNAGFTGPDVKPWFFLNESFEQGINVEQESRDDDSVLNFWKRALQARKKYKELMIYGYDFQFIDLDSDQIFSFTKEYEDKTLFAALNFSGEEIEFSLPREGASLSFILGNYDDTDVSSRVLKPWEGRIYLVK

Row | Compound | inhibition at 31.2 µM [2, 5] | inhibition at 62.5 µM [2, 6] | inhibition at 125 µM [2, 7] | inhibition at 250 µM [2, 8] | inhibition at 500 µM [2, 9] | inhibition at 1000 µM [2, 10] | inhibition at 2000 µM [2, 11] | inhibition at 31.2 µM [2, 12] | inhibition at 62.5 µM [2, 13] | inhibition at 125 µM [2, 14] | inhibition at 250 µM [2, 15] | inhibition at 500 µM [2, 16] | inhibition at 1000 µM [2, 17] | inhibition at 2000 µM [2, 18] | inhibition at 31.2 µM [2, 19] | inhibition at 62.5 µM [2, 20] | inhibition at 125 µM [2, 21] | inhibition at 250 µM [2, 22] | inhibition at 500 µM [2, 23] | inhibition at 1000 µM [2, 24] | also measured
1 | Cc1c(C)c2c(c(C)c1O)CC[C@@](C)(CCC[C@H](C)CCC[C@H](C)CCCC(C)C)O2 [α-tocopherol] |  |  |  |  |  |  |  |  |  |  |  |  |  |  |  |  |  |  |  |  | IC50 [1]: ~25 µM
2 | C[C@H]1O[C@H](O[C@H]2[C@H](O)[C@@H](O)[C@@H](O[C@H]3[C@H](O)[C@@H](O)C(O)O[C@@H]3CO)O[C@@H]2CO)[C@H](O)[C@@H](O)[C@@H]1N[C@H]1C=C(CO)[C@@H](O)[C@H](O)[C@H]1O (stereo partly shown) [Acarbose, acarbose] | 6.67% | 3.73% | 7.12% | 10.6% | 31.1% | 35.9% | 38.4% | 5.58% | 3.74% | 6.97% | 10.5% | 31.2% | 36% | 37.5% | 5.89% | 3.63% | 7.34% | 10.7% | 31.1% | 36.7% | α-glucosidase inhibition (%), Mean [2]: 38.3925%; inhibition at 2000 µM [2, 25]: 39.4%; inhibition at 31.2 µM [2, 26]: 8.54%; inhibition at 62.5 µM [2, 27]: 3.82%; inhibition at 125 µM [2, 28]: 7.06%; inhibition at 250 µM [2, 29]: 10.5%; inhibition at 500 µM [2, 30]: 31.1%; inhibition at 1000 µM [2, 31]: 34.8%; inhibition at 2000 µM [2, 32]: 38.3%
3 | C=C1CC[C@@H]2[C@](C)(CO)[C@H](O)CC[C@@]2(C)[C@@H]1C/C=C1/C(=O)OC[C@H]1O [Andrographolide] | 0.0652% | -0.749% | 4.88% | 1.93% | 11.9% | 13.6% | 21.1% | -0.3% | 2.19% | 6.76% | -2.97% | 13.1% | 17.1% | 22.5% | 1.47% | 3.06% | 3.19% | 3.6% | 12% | 13.5% | Kd ([3]; SPR steady-state affinity model, 25 °C, immobilized yeast α-glucosidase, read-out: dissociation constant (KD)): 137 ± 85.1 µM; FRAP, Ascorbic acid equivalent, replicate 3 ([4]; 500 μM): -2.0327 AAE, μM; α-glucosidase inhibition (%), Mean [2]: 21.1432%; IC50 ([2]; read-out: IC50 (α-glucosidase inhibitory activity)): > 2000 µM; inhibition at 2000 µM [2, 25]: 21%; inhibition at 31.2 µM [2, 26]: -0.976%; inhibition at 62.5 µM [2, 27]: -7.49%; inhibition at 125 µM [2, 28]: 5.68%; inhibition at 250 µM [2, 29]: 5.16%; inhibition at 500 µM [2, 30]: 10.6%; inhibition at 1000 µM [2, 31]: 11%; inhibition at 2000 µM [2, 32]: 19.9%; % Inhibition (DPPH), replicate 1 [1]: 17.9296%; % DPPH Inhibition, Mean [1]: 14.4808%; % Inhibition (DPPH), replicate 2 [1]: 11.6610%; % Inhibition (DPPH), replicate 3 [1]: 13.8517%
4 | C=C1CCC2C(C)(COC(C)=O)C(OC(C)=O)CCC2(C)C1CC(SC(=S)N1CCN(c2ccc(O)cc2)CC1)C1=CCOC1=O (stereo not shown) [compound 3f] | -0.49% | 5.53% | 15.2% | 26.6% | 56.3% | 78% | 81.9% | 3.15% | 5.24% | 19.1% | 28.2% | 59.3% | 78.6% | 81.9% | -1.2% | 7.4% | 17.6% | 28.1% | 57.1% | 78% | Kd [3]: 12.9 µM; fold stronger affinity than andrographolide ([3]; from SPR KD values): approximately 10 fold; FRAP, Ascorbic acid equivalent, replicate 1 ([4]; 500 μM, first replicate column): 109.9203 AAE, μM; FRAP, Ascorbic acid equivalent, replicate 2 ([4]; 500 μM, second replicate column): 87.9587 AAE, μM; FRAP, Ascorbic acid equivalent, replicate 3 ([4]; 500 μM): 67.0175 AAE, μM; FRAP activity ([4]; 600 μM): 253.90 ± 47.40 AAE; IC50 ([2]; IC50 (α-glucosidase inhibitory activity)): 411 µM and ~411 µM; inhibition at 2000 µM [2, 25]: 81.9%; inhibition at 31.2 µM [2, 26]: -3.42%; inhibition at 62.5 µM [2, 27]: 3.94%; inhibition at 125 µM [2, 28]: 8.93%; inhibition at 250 µM [2, 29]: 23.5%; inhibition at 500 µM [2, 30]: 52.6%; inhibition at 1000 µM [2, 31]: 77.3%; inhibition at 2000 µM [2, 32]: 82%; IC50 [1]: ~25 µM; % Inhibition (DPPH), replicate 1 [1]: 85.7465%; % DPPH Inhibition, Mean [1]: 84% and 84.47 ± 1.14% and 84.4719%; % Inhibition (DPPH), replicate 2 [1]: 83.5328%; % Inhibition (DPPH), replicate 3 [1]: 84.1364%

From publication PMC12543186, “Discovery of C-12 dithiocarbamate andrographolide analogue as a novel antioxidant and α-glucosidase inhibitors: In vitro and in silico studies” (PLOS One, 2025)
